MIC data for six compounds are collected here from ChEMBL document CHEMBL5046246, “Dimeric Tetracenomycin Derivatives from a Taklamakan Desert-Derived Streptomyces sp. HDN154193” (2022).

≈ marks a conversion by molar mass, not a printed value.

Holding throughout (format): functional
The subject of one assay is Staphylococcus. Put plainly: Antibacterial activity against methicillin-resistant coagulase-negative Staphylococcus assessed as reduction in bacterial growth by double dilution method.
In another assay the test system is Mycolicibacterium phlei. Put plainly: Antibacterial activity against Mycobacterium phlei assessed as reduction in bacterial growth by double dilution method.
Another assay relates to Proteus sp. Put plainly: Antibacterial activity against Proteus species assessed as reduction in bacterial growth by double dilution method. The settings on record: Proteus sp. (in: enterobacteria).
For the next assay, the system named is Bacillus subtilis. Nature of the assay: Antibacterial activity against Bacillus subtilis assessed as reduction in bacterial growth by double dilution method.
The next assay relates to Staphylococcus aureus. Nature of the assay: Antibacterial activity against methicillin-resistant Staphylococcus aureus assessed as reduction in bacterial growth by double dilution method.

As to `O=C(O)c1cn(C2CC2)c2cc(N3CCNCC3)c(F)cc2c1=O` [CIPROFLOXACIN], the MIC with Staphylococcus was 32.1 µg/mL (≈ 96.9 µM); in the assay with Mycolicibacterium phlei it was 0.1 µg/mL (≈ 0.302 µM); with Proteus sp. it was under 0.1 µg/mL; in the assay on Bacillus subtilis it was under 0.1 µg/mL; with Staphylococcus aureus, 128 µg/mL (≈ 388 µM).
Take `Cc1cc(O)cc2cc3c(c(O)c12)C(=O)c1c(O)cc(O)cc1C3C1c2cc(O)cc(O)c2C(=O)c2c1cc1cc(O)cc(C)c1c2O` (racemic): the minimal inhibitory concentration (MIC) in the assay on Staphylococcus is 1.9 µg/mL (≈ 2.96 µM); with Mycolicibacterium phlei, 1 µg/mL (≈ 1.56 µM); with Proteus sp. it was 1.9 µg/mL (≈ 2.96 µM); with Bacillus subtilis, 3.9 µg/mL (≈ 6.07 µM); with Staphylococcus aureus, 1 µg/mL (≈ 1.56 µM).
On to `Cc1cc(O)cc2cc3c(c(O)c12)C(=O)c1c(O)cc(O)cc1[C@H]3[C@@H]1c2cc(O)cc(O)c2C(=O)c2c1cc1cc(O)cc(C)c1c2O`, for which the minimum inhibitory concentration (MIC) with Staphylococcus, in the assay on Mycolicibacterium phlei, in the assay on Proteus sp., with Bacillus subtilis and in the assay on Staphylococcus aureus was 1.9 µg/mL (≈ 2.96 µM) each time.
Regarding `Cc1cc(O)cc2cc3c(c(O)c12)C(=O)c1c(O)cc(O)cc1C3=O` [TETRACENOMYCIN D], the minimal inhibitory concentration (MIC) was 7.7 µg/mL (≈ 22.9 µM) with Staphylococcus; 7.7 µg/mL (≈ 22.9 µM) in the assay on Mycolicibacterium phlei; 16 µg/mL (≈ 47.6 µM) with Proteus sp.; 16 µg/mL (≈ 47.6 µM) with Bacillus subtilis; 16 µg/mL (≈ 47.6 µM) in the assay with Staphylococcus aureus.
Take `Cc1cc(O)cc2cc3c(c(O)c12)C(=O)c1c(O)cc(O)cc1[C@H]3[C@H]1c2cc(O)cc(O)c2C(=O)c2c1cc1cc(O)cc(C)c1c2O`: the MIC in the assay on Staphylococcus is 1.9 µg/mL (≈ 2.96 µM); in the assay with Mycolicibacterium phlei it was 1.9 µg/mL (≈ 2.96 µM); in the assay with Proteus sp. it was 3.9 µg/mL (≈ 6.07 µM); with Bacillus subtilis, 3.9 µg/mL (≈ 6.07 µM); in the assay on Staphylococcus aureus it was 1.9 µg/mL (≈ 2.96 µM).
Take `Cc1cc(O)cc2cc3c(c(O)c12)C(=O)c1c(O)cc(O)cc1[C@@H]3[C@H]1c2cc(O)cc(O)c2C(=O)c2c1cc1cc(O)cc(C)c1c2O`: the MIC in the assay with Staphylococcus worked out at 1.9 µg/mL (≈ 2.96 µM); with Mycolicibacterium phlei, 1.9 µg/mL (≈ 2.96 µM); in the assay on Proteus sp., 3.9 µg/mL (≈ 6.07 µM); in the assay on Bacillus subtilis it was 3.9 µg/mL (≈ 6.07 µM); with Staphylococcus aureus, 1.9 µg/mL (≈ 2.96 µM).

A word on the MIC: it is the lowest concentration that inhibits growth of the organism.
